Results as given in paper PMC2703631, “Identification of non-muscle myosin heavy chain as a substrate for Cdk5 and tool for drug screening” (Journal of Biomedical Science, 2009).

How the values were obtained:
[1] = system: Cdk5/p25 transfected HEK293 cells; assay: NMHC-B (pSerCdk substrate) phosphorylation by Western blot in Cdk5/p25 transfected HEK293 cells; assay type: cell-based, human; settings: for IC50: Homo sapiens, 4 hours treatment, Western blot, read-out: IC50, inhibition of pSerCdk substrate (NMHC-B) phosphorylation
Description: (§1) The inhibition curves were analysed by non-linear regression using Graph Pad Prism.

[2] = biological target: recombinant human Cdk5/p25 (Homo sapiens, UniProt Q00535); assay: Scintillation Proximity Assay (SPA), peptide substrate phosphorylation; assay type: biochemical; settings: recombinant human Cdk5/p25 3.3 nM, 2 μM ATP, biotinylated peptide substrate; read-out: IC50, inhibition of peptide substrate phosphorylation in SPA assay
recombinant human Cdk5/p25, sequence (Q00535 whole entry): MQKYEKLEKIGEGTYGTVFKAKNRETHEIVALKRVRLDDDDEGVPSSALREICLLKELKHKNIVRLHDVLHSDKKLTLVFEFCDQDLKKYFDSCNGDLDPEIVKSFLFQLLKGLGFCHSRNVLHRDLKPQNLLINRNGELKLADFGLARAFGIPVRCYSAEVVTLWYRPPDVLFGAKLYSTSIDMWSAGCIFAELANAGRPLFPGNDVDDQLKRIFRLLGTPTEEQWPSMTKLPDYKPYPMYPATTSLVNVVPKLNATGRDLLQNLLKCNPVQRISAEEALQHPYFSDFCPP
recombinant human Cdk5/p25, sequence (Q15078 99-307 partner limits assumed): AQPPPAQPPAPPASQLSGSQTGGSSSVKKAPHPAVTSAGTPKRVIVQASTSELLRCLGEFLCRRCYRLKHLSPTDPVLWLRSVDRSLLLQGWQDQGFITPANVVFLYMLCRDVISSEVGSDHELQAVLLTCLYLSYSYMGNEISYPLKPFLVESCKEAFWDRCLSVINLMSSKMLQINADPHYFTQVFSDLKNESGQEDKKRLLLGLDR
Description: as §1
This biochemical assay measures inhibition of the recombinant human Cdk5/p25 protein kinase by different compounds with a synthetic peptide as a substrate.

[3] = Solubility (remark in discussion); assay type: physicochemical; settings: stated as likely cause of precipitation at higher concentrations
[4] = system: human neuroblastoma SH-SY5Y cells; assay: pSerCdk substrate (NMHC-B) phosphorylation by Western blot in SH-SY5Y cells; assay type: cell-based; settings: undifferentiated and RA-differentiated SH-SY5Y cells, 10 μM, 4 hours
Description: SH-SY5Y cells were grown in medium with equal amount of Minimum Essential Medium (MEM, InVitrogen, Sweden) and Nutrient Mixture Ham's F-12 (InVitrogen, Sweden), supplemented with 1% non-essential amino acids and with heat-inactivated FCS. Cells were plated at a density of 4.0 × 10^4 cells/cm^2 in 6-well culture dishes using cell medium with 10% FCS. For differentiation, the cells were treated 6 days with 10 μM all-trans-retinoic acid (RA, Sigma, Sweden) in the medium containing 1% FCS. In some experiments the cells were left undifferentiated and these cells were cultured in medium containing 10% FCS. […]
HEK293 cells were lysed in buffer containing 10 mM Tris-HCl pH 7.2, 150 mM NaCl, 2 mM EDTA, 50 mM NaF, 1 mM Na3O4V, 0.5% NP-40 and 1 complete protease inhibitor cocktail tablet (Roche Diagnostics Scandinavia AB, Sweden)/10 ml buffer. […] The protein content in the supernatants was measured using BCA Protein Assay kit (Pierce Biotechnology, Rockford, IL, USA). […] Average density of the bands was measured in Fluor-S™MultiImager (Bio-Rad Laboratories AB, Sweden) by using Quantity One software. The inhibition curves were analysed by non-linear regression using Graph Pad Prism.
We also investigated NMHC-B phosphorylation by Cdk5 in human neuroblastoma SH-SY5Y cells. […] Verification that the 200 kDa pSerCdk band detected in SH-SY5Y cells was in fact NMHC-B was done by immunoprecipitation.

| Compound | inhibition of pSerCdk substrate phosphorylation ([1]; data not shown) | IC50 [2] | IC50 [1] | solubility [3] | phosphorylation of 200 kDa pSerCdk substrate band [4] |
| --- | --- | --- | --- | --- | --- |
| Cc1c(C(=O)c2ccc(Cl)cc2)cc(C(C)(C)C)c(O)c1C(=O)O [5-(4-chlorobenzoyl)-2-hydroxy-6-methyl-3-tert-butyl-benzoic acid] | did not show inhibition | – | – | – | – |
| NS(=O)(=O)c1cc(-c2nc3ccc(Cl)cc3s2)cs1 [AZ compound, 4-(6-chlorobenzothiazol-2-yl)thiophene-2-sulfonamide] | – | 0.355 µM | 4.36 µM | poor solubility | – |
| CC[C@H](CO)Nc1nc(NCc2ccccc2)c2ncn(C(C)C)c2n1 [Roscovitine] | – | – | – | – | completely inhibited |
| CCn1c(=O)ccc2cnc(Nc3ccc(F)cc3)nc21 [WL compound, 7-ethyl-4-[(4-fluorophenyl)amino]-3,5,7-triaza bicyclo [4.4.0.] deca-1,3,5,9-tetraen-8-one] | – | 0.045 µM | 2.55 µM | – | – |
